Measurements reported in patent US12391662B2, “Lipid compounds and lipid nanoparticle compositions” (RINUAGENE BIOTECHNOLOGY CO., LTD., priority 2022, dated 2025).
Values belong to the molecule of their own block, whether it stands above or below them.

Experiments:
[1] = LNP particle size and PDI (Malvern ZetaSizer); assay type: physicochemical; conditions: LNP of Compound:cholesterol:DSPC:DMG-PEG2000=50:38.5:10:1.5 encapsulating mRNA
Protocol: The mRNA stock solution was dispersed in 20 mM acetic acid solution (pH 5.0) to give a final concentration of 200 μg/mL (aqueous phase). […] The mRNA was mixed with the lipid mixture by T-mixing and controlling the flow rate of aqueous phase and oil phase (3:1) with a total flow rate of 12-50 ml/min, to obtain LNP-encapsulated mRNA. The encapsulated LNP was diluted with buffer (pH 5.0-5.5) and then concentrated by ultrafiltration with replacement of diluent, and finally LNP was concentrated to 200 μg/mL˜600 μg/mL of mRNA, while the pH of LNP was adjusted to about 7-8. […]

[2] = LNP mRNA encapsulation efficiency (Quant-iT RiboGreen RNA Assay Kit); assay type: physicochemical; conditions: LNP of Compound:cholesterol:DSPC:DMG-PEG2000=50:38.5:10:1.5 encapsulating mRNA
Protocol: The mRNA stock solution was dispersed in 20 mM acetic acid solution (pH 5.0) to give a final concentration of 200 μg/mL (aqueous phase). […] The mRNA was mixed with the lipid mixture by T-mixing and controlling the flow rate of aqueous phase and oil phase (3:1) with a total flow rate of 12-50 ml/min, to obtain LNP-encapsulated mRNA. The encapsulated LNP was diluted with buffer (pH 5.0-5.5) and then concentrated by ultrafiltration with replacement of diluent, and finally LNP was concentrated to 200 μg/mL˜600 μg/mL of mRNA, while the pH of LNP was adjusted to about 7-8. Finally, Quant-iT™ RiboGreen™ RNA Assay Kit (Invirtogen by Thermo Fisher Scientific, cat #R11490), and 10% Triton X-100 solution or 10% OTG solution as an emulsion breaker were used to detect the total and free content of mRNA in the LNP, and the encapsulation efficiency of LNP was calculated.

SD rats = test: Toxicity assay: clinical markers 24 hours after intravenous LNP administration; assay type: in vivo; conditions: LNP intravenous 3 mg/kg, 24 hours after administration
Protocol: The nanoparticle samples containing different lipids were administered to rats (SD rats, Zhejiang Vital River Laboratory Animal Technology Co., Ltd, 3 males and 3 females per group, body weight: 220-300 g for female, 260-340 g for male) by intravenous injection at a dose of 3 mg/kg. The expression of various clinical markers was assessed at 24 hours after administration and compared with the expression induced by SM102 LNP formulation (i.e., LNP formulation made from the known SM102 lipid, which was prepared according to the method of Test Example 1 in the same ratio) as well as by phosphate buffered saline (PBS).

rats = test: Toxicity assay: serum ALT/AST and deaths after single intravenous dose of Luciferase mRNA LNPs; assay type: in vivo; conditions: LNP intravenous single dose 3 mg/kg; for aspartate aminotransferase and alanine aminotransferase values compared with MC3 and SM102 groups: serum 24 hours after administration, FIGS. 3A-3B; for animals that died during the test: five animals per group
Protocol: Animals were grouped according to body weight (five animals per group) one day before administration (Zhejiang Vital River Laboratory Animal Technology Co. Ltd, male, body weight: 170-220 g). […] Luciferase mRNA was encapsulated in said lipid nanoparticle compositions.
The administration volume is 10 mL/kg, and the administration dosage is 3 mg/kg.

balb/c mice = test: Extrahepatic delivery of Luciferase mRNA LNPs after intravenous injection, organ fluorescence (liver, spleen, stomach, intestine tract); assay type: in vivo; conditions: 20 μg LNP intravenous, 24 hours, FIGS. 2A-2D, compared with MC3 and Compound 20A groups
Protocol: Five balb/c mice (Zhejiang Vital River Laboratory Animal Technology Co., Ltd, female, 6-8 weeks old, 18-20 g) were taken as a group, labeled with a black marker pen on the tail with numbers 1 # to 5 #; five mice in each group were sequentially injected intravenously with 20 μg of the lipid nanoparticle composition. The lipid nanoparticle compositions of the present invention were prepared according to Test Example 1, in which Luciferase mRNA was encapsulated. A phosphate buffered saline (PBS) group was set up in parallel as a blank control, and an MC3 group was set up as a reference (obtained by preparation according to the method and ratio of Test Example 1).
Fluorescence assay was performed for each group of mice at 24 hours after intravenous administration of the samples ([…] YEASEN,LOT:D5330150, IP, 150 mg/kg was administered 10 minutes in advance for each group), the mice were anesthetized, and then put into a small animal living optical imaging system-IVIS® Lumina LT Series III according to the orders from tail mark 1 # to 5 #. The whole-body fluorescence was detected to evaluate the delivery and the expression of the prepared Luciferase mRNA.
At the end of the test, the mice were sacrificed by cervical dislocation, and the liver, spleen, stomach, and intestine tract were harvested, and the organs were discharged according to the corresponding positions from 1 # to 5 # for fluorescence detection of the organs.

SMILES: CCCCCCCCCCC(=O)OCCCCCCC1(CCCCCCCC(=O)OC(CCCCCCCC)CCCCCCCC)OCC(CN(C)C)CO1 (centres unmarked) [Compound 4]
PDI [1]: 0.1387
Particle Size [1]: 69.03 nm
Encapsulation Efficiency [2]: 96.23%

SMILES: CCCCCCCCCCCNC(=O)CCCCCC1(CCCCCCCC(=O)NC(CCCCCCCC)CCCCCCCC)OCC(CCN(C)C)O1 (centres unmarked) [Compound 17]
PDI [1]: 0.05
Particle Size [1]: 125.0 nm
Encapsulation Efficiency [2]: 98.2%

SMILES: CCCCCCCCCCCOC(=O)CCCCCC1(CCCCCCCC(=O)OC(CCCCCCCC)CCCCCCCC)OCC(CN(C)C)CO1 (centres unmarked) [Compound 1]
PDI [1]: 0.1125
Particle Size [1]: 66.97 nm
Encapsulation Efficiency [2]: 97.22%

SMILES: CCCCCCCCCCC(=O)OCCCCCCC1(CCCCCCCCOC(=O)C(CCCCCCCC)CCCCCCCC)OCC(CCN(C)C)O1 (centres unmarked) [Compound 8]
PDI [1]: 0.09334
Particle Size [1]: 99.68 nm
Encapsulation Efficiency [2]: 90.99%

SMILES: CCCCCC(CCCCC)CCOC(=O)CCCCCCCC1(CCCCCCCC(=O)OCCC(CCCCC)CCCCC)OC[C@H](CCN(C)C)O1 [Compound 20A]
PDI [1]: 0.073
Particle Size [1]: 85.64 nm
animals that died during the test (rats): all five rats in Compound 20A group died
Encapsulation Efficiency [2]: 92.5%

SMILES: CCCCCCCCCCCOC(=O)CCCCCC1(CCCCCCCC(=O)OC(CCCCCCCC)CCCCCCCC)OCC(CCN(CC)C(C)C)O1 (centres unmarked) [Compound 16]
PDI [1]: 0.03
Particle Size [1]: 71.68 nm
Encapsulation Efficiency [2]: 97.6%

SMILES: CCCCCCCCCCC(=O)OCCCCCCC1(CCCCCCCCOC(=O)C(CCCCCCCC)CCCCCCCC)OCC(CN(C)C)CO1 (centres unmarked) [Compound 9]
PDI [1]: 0.1368
Particle Size [1]: 71.61 nm
Encapsulation Efficiency [2]: 95.07%

SMILES: CCCCCCCCC(CCCCCCCC)CC(=O)CCCCCCCC1(CCCCCCCC(=O)OC(CCCCCCCC)CCCCCCCC)OCC(CCN(C)C)O1 (centres unmarked) [Compound 18]
PDI [1]: 0.10
Particle Size [1]: 69.23 nm
Encapsulation Efficiency [2]: 96.5%

SMILES: CCCCCCCCCCC(=O)OCCCCCCC1(CCCCCCCCOC(=O)C(CCCCCCCC)CCCCCCCC)OCC(CN(C)C)O1 (centres unmarked) [Compound 7]
PDI [1]: 0.1537
Particle Size [1]: 92.38 nm
Encapsulation Efficiency [2]: 96.52%

SMILES: CCCCCCCCC(CCCCCC)C(=O)OCCCCCCC1(CCCCCCOC(=O)C(CCCCCC)CCCCCCCC)OCC(CCN(C)C)O1 (centres unmarked) [Compound 21]
PDI [1]: 0.3138
Particle Size [1]: 92.89 nm
Encapsulation Efficiency [2]: 96.8%

SMILES: CCCCC/C=C\C/C=C\CCCCCCCCC(CCCCCCCC/C=C\C/C=C\CCCCC)OC(=O)CCCN(C)C [MC3, reference compound]
PDI [1]: 0.15
Particle Size [1]: 72.70 nm
animals that died during the test (rats): four rats in the MC3 group died
Encapsulation Efficiency [2]: 96.7%

SMILES: CCCCCCCCCCCOC(=O)CCCCCC1(CCCCCCCC(=O)OC(CCCCCCCC)CCCCCCCC)OCC(CCN(C)CCC)O1 (centres unmarked) [Compound 15]
PDI [1]: 0.10
Particle Size [1]: 61.73 nm
Encapsulation Efficiency [2]: 97.2%

SMILES: CCCCCCCCCCCOC(=O)CCCCCN(CCO)CCCCCCCC(=O)OC(CCCCCCCC)CCCCCCCC [SM-102, reference compound]
Alanine transaminase (SD rats): 286.51 U/L
Aspartate transaminase (SD rats): 486.42 U/L
PDI [1]: 0.07
Particle Size [1]: 74.80 nm
Encapsulation Efficiency [2]: 97.5%

SMILES: CCCCCCCCCCCOC(=O)CCCCCC1(CCCCCC(=O)OCCCCCCCCCCC)OCC(CCN(C)C)O1 (centres unmarked) [Compound 19]
PDI [1]: 0.34
Particle Size [1]: 110.3 nm
Encapsulation Efficiency [2]: 93.3%

SMILES: CCCCCCCCCCCOC(=O)CCCCCC1(CCCCCCCC(=O)OC(CCCCCCCC)CCCCCCCC)OCC(CCN(CC)CC)O1 (centres unmarked) [Compound 11]
PDI [1]: 0.06
Particle Size [1]: 80.34 nm
Encapsulation Efficiency [2]: 97.5%

Continued, in another order:

PDI [1]: 0.04107
Particle Size [1]: 89.54 nm
Encapsulation Efficiency [2]: 94.92%
SMILES: CCCCCCCCCCC(=O)OCCCCCCC1(CCCCCCCC(=O)OC(CCCCCCCC)CCCCCCCC)OCC(CCN(C)C)O1 (centres unmarked) [Compound 5]
Alanine transaminase (SD rats): 65.72 U/L
Aspartate transaminase (SD rats): 251.10 U/L

PDI [1]: 0.02967
Particle Size [1]: 86.26 nm
Encapsulation Efficiency [2]: 96.44%
SMILES: CCCCCCCCCCCOC(=O)CCCCCC1(CCCCCCCC(=O)OC(CCCCCCCC)CCCCCCCC)OC[C@H](CCN(C)C)O1 (some centres unmarked) [Compound 2A]
aspartate aminotransferase and alanine aminotransferase values compared with MC3 and SM102 groups (rats): lower than those of the groups of the ionizable lipids MC3 and SM102
extrahepatic delivery effect (balb/c mice): significant extrahepatic delivery effects

PDI [1]: 0.03414
Particle Size [1]: 70.27 nm
Encapsulation Efficiency [2]: 92.32%
SMILES: CCCCCCCCCCCOC(=O)CCCCCC1(CCCCCCCC(=O)OC(CCCCCCCC)CCCCCCCC)OCC(CCN(C)C)O1 (centres unmarked) [Compound 2]
Alanine transaminase (SD rats): 116.27 U/L
Aspartate transaminase (SD rats): 342.17 U/L

PDI [1]: 0.07
Particle Size [1]: 78.44 nm
Encapsulation Efficiency [2]: 96.5%
SMILES: CCCCCCCCCCCOC(=O)CCCCCC1(CCCCCCCC(=O)OC(CCCCCCCC)CCCCCCCC)OCC(CCN(C)CC)O1 (centres unmarked) [Compound 10]

PDI [1]: 0.1264
Particle Size [1]: 95.04 nm
Encapsulation Efficiency [2]: 95.04%
SMILES: CCCCCCCCCCCOC(=O)CCCCCC1(CCCCCCCC(=O)OC(CCCCCCCC)CCCCCCCC)OCC(CN(C)C)O1 (centres unmarked) [Compound 3]

PDI [1]: 0.04848
Particle Size [1]: 67.95 nm
Encapsulation Efficiency [2]: 98.4%
SMILES: CCCCCCCCCCC(=O)OCCCCCCC1(CCCCCCCC(=O)OC(CCCCCCCC)CCCCCCCC)OC[C@@H](CCN(C)C)O1 (some centres unmarked) [Compound 5B]

PDI [1]: 0.16
Particle Size [1]: 118.1 nm
Encapsulation Efficiency [2]: 90.97%
SMILES: CCCCCCCCCCCOC(=O)CCCCCC1(CCCCCCCC(=O)OC(CCCCCCCC)CCCCCCCC)OCC(CCCCN(C)C)O1 (centres unmarked) [Compound 14]

PDI [1]: 0.16
Particle Size [1]: 98.15 nm
Encapsulation Efficiency [2]: 89.3%
SMILES: CCCCCCCCCCCOC(=O)CCCCCC1(CCCCCCCC(=O)OC(CCCCCCCC)CCCCCCCC)OCC(CCCN(C)C)O1 (centres unmarked) [Compound 13]
aspartate aminotransferase and alanine aminotransferase values compared with MC3 and SM102 groups (rats): lower than those of the groups of the ionizable lipids MC3 and SM102
extrahepatic delivery effect (balb/c mice): significant extrahepatic delivery effects

PDI [1]: 0.1676
Particle Size [1]: 69.85 nm
Encapsulation Efficiency [2]: 95.50%
SMILES: CCCCCCCCCCC(=O)OCCCCCCC1(CCCCCCCC(=O)OC(CCCCCCCC)CCCCCCCC)OCC(CN(C)C)O1 (centres unmarked) [Compound 6]

PDI [1]: 0.1311
Particle Size [1]: 73.41 nm
Encapsulation Efficiency [2]: 96.0%
SMILES: CCCCCCCCCCC(=O)OCCCCCCC1(CCCCCCCC(=O)OC(CCCCCCCC)CCCCCCCC)OC[C@H](CCN(C)C)O1 (some centres unmarked) [Compound 5A]
aspartate aminotransferase and alanine aminotransferase values compared with MC3 and SM102 groups (rats): lower than those of the groups of the ionizable lipids MC3 and SM102
extrahepatic delivery effect (balb/c mice): significant extrahepatic delivery effects
